Data set [1] addresses T1, mPDXK (mouse pyridoxal kinase) (Mus musculus, UniProt Q8K183).
T1 sequence (Q8K183 1-312): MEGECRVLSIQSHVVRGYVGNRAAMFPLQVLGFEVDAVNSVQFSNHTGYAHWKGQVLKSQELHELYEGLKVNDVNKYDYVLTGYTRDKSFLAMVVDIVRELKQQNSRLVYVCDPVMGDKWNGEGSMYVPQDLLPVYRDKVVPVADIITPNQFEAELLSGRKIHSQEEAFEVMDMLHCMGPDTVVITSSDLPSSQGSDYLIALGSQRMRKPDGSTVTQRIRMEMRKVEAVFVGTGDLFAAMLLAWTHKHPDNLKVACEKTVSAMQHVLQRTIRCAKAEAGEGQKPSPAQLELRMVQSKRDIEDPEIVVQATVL
Briefly: photometric PLP formation at […] nm, nonlinear variable-slope fit. The data set is classed as biochemical.

The target of data set [2] is T1, mPDXK (mouse pyridoxal kinase). As to the kind of experiment: photometric PLP formation at […] nm, Dixon plot. The data set is classed as biochemical.
Substrate in the data set “purified protein”: Cc1ncc(CO)c(C=O)c1O
Briefly: purified protein. The data set is classed as biochemical, Mus musculus. The note with it: 1 mM ATP, 1 mM MgCl2, 100 mM KCl, 10 mM Hepes pH 7.3, 37 °C.

On to `C[C@@H]1CC[C@H]2[C@@H](C)C(=O)O[C@@H]3O[C@@]4(C)CC[C@@H]1[C@]32OO4` [artemisinin], for which half-maximal inhibition in data set [1] (IC50) required 229 ± 1.3 µM. In addition, the affinity in data set [2] corresponds to a Ki of 120 ± 2.4 µM.
On the same counts, the results for `C[C@H]1[C@H](OC(=O)CCC(=O)O)O[C@@H]2O[C@@]3(C)CC[C@H]4[C@H](C)CC[C@@H]1[C@@]24OO3` [artesunate] are 1445 ± 1.4 µM and 1250 ± 4.7 µM.

B1: mPDXK (mouse pyridoxal kinase) (Mus musculus) (protein)
chain: T1 sequence (Q8K183 1-312)
Take B1: in “purified protein”, the Km (commonly the substrate concentration at which the rate is half of its maximum) is 26.0 ± 5.4 µM and the kcat (in general, the maximal rate divided by the concentration of active sites) was 0.1436 ± 0.003 s⁻¹.
